Measured values as given in patent US12226396B2, “Gluconic acid derivatives for use in the treatment and/or prevention of microbial infections” (GEDEA BIOTECH AB, priority 2017, dated 2025).

How the values were obtained:
C. albicans [1] = experiment: Viability of mature biofilm, XTT assay; assay type: cell-based, Candida albicans; settings: 48 h of incubation with GDA
Experimental: (§1) XXT is a colorimetric assay for quantification of cellular viability, and cytotoxicity. The assay is based on the cleavage of the tetrazolium salt XTT, a conversion that only occurs in viable cells. […] Then the cells were washed 2 times with PBS, after which the XTT reaction mixture was added. After 30 min the optical density measured at 485 nm.

C. glabrata = experiment: Viability of mature biofilm, XTT assay; assay type: cell-based, Candida glabrata; settings: 24 h of incubation with GDA
Experimental: as §1

C. albicans [2] = experiment: Microfluidics study of biofilm development (cell morphology); assay type: cell-based, Candida albicans; settings: 1 h hydrolysate of 2.5 g pellet diluted 50 times, after 5 h
Experimental: To monitor the C. albicans cell morphology we studied the biofilm development also using microscopy and microfluidics. After the yeast cells were inoculated, hyphae started to form within first hour of incubation in the biofilm medium (YNB supplemented with 100 mM proline and 0.2% glucose, pH7.0). […] A sample was taken after 1 h and diluted 50 times with biofilm medium and added to C. albicans.

Escherichia coli K12 = experiment: E. coli biofilm study in M9 medium (crystal violet); assay type: cell-based
Experimental: The bacterial strain Escherichia coli K12 was used for the biofilm study. This strain was maintained on LB medium at 37° C. The biofilm was studied in synthetic medium M9 (×1 M9 minimal salts (Sigma M6030), 2 mM MgSO4, 0.1 mM CaCl2, and 0.2% glucose), which contained either phosphate buffer, citric acid, lactic acid, gluconic acid or glucono-O-lactone to obtain media with different pH (2.6-6.6).
The overnight culture of E. coli K12 (OD600˜5.0) was washed with sterile water and inoculated to the final concentration 0.2 OD/ml of M9 medium with different pH of different compounds. The biofilm development was studied in 96-well flat-bottom polystyrene microtiter plates (Sigma Aldrich, Corning® Costar® culture plates, CLS3596-50EA). The biofilm was stained with crystal violet.

[3] = tested on: Gardnerella vaginalis CCUG 3717; experiment: MIC microdilution test; assay type: cell-based; settings: CAMHB, 48 hours, 5% CO2
Experimental: (§2) Gardnerella vaginalis, Lactobacillus iners, and Lactobacillus crispatus were recovered by CCUG (Culture Collection of University of Gothenburg). Subculture plates were made for G. vaginalis on Chocolate-GL plates and Lactobacillus spp. on M.R.S. agar plates at 5% CO2, 36° C. The inoculums were prepared from the subculture plates. Colonies were inoculated to culture tubes with 5 ml test medium and vortexed 2 min with about 10 glass beads a 3 mm in diameter. Colonies were taken until the turbidity of the solution was OD475 of 0.4-0.5. The bacterial solutions were checked in light microscopy at ×40 with phase contrast to make sure that the cells were dispersed. Each bacterial suspension was diluted in its test medium, 1:100, to equal 1-3×10^6 CFU/ml. The microbial solutions were stored at 20° C. during the preparation of the inoculums
(§3) The test substance solution was prepared aseptically at 1 g/ml in sterile H2O. The first row of wells was filled with 100 μl substance and then 2 fold dilutions were done vertically in 8 steps.
(§4) Next, 100 μl microorganisms were added and the plates were gently shaken at 500 rpm for 30 seconds before incubation at 35° C. and 90% RH in the CO2 incubator set at 5% CO2. After 48 and 72 hours of incubation, the OD was measured and ocular assessments were done. The pH was also measured for all dilutions, n=1, pH=6.8-7.1

[4] = tested on: Lactobacillus crispatus CCUG 44128; experiment: MIC microdilution test; assay type: cell-based; settings: IsoS-M.R.S., 48 hours, 5% CO2
Experimental: as §2, §3, §4

[5] = tested on: Lactobacillus iners CCUG 44025; experiment: MIC microdilution test; assay type: cell-based; settings: CAMHB, anaerobic conditions, 120 hours
Experimental: as §2, §3
The pH was also measured for all dilutions, n=1, pH=6.8-7.1

[6] = tested on: Acetinobacter baumanii CCUG 57035; experiment: MIC microdilution test; assay type: cell-based; settings: CCUG 57035, aerobic
Experimental: (§5) The test substance solution was prepared aseptically at 1 g/ml in sterile H2O. […] After 48 and 72 hours of incubation, the OD was measured and ocular assessments were done. […] All strains were recovered from microbanks and streak and subculture plates were made. The aerobes on TSA plates, the fastidious aerobes on horse blood plates and the anaerobe on FAA plates. […] At the time of testing, loopfuls of colonies selected from 18- to 24-hour agar plates for the aerobes and fastidious aerobes were suspended in 5 ml saline in 10 ml tubes containing 10 glass beads a 3 mm in diameter. […] The cell suspensions were then vortexed vigorously for 1 minute to obtain a turbid suspension. Each suspension of the aerobes and fastidious aerobes was adjusted to equal OD 0.28 at 475 nm using a spectrophotometer, which correlates approximately to 1-3×10^8 CFU/ml with most species. For the anaerobe, the OD measurement turned out to be difficult due to the use of blood in the culture medium. […] The aerobes and fastidious aerobes were further diluted in saline 10 times so that the inoculum concentration equaled to […]. The anaerobe was not diluted but used directly as is. The different aerobic and fastidious aerobic bacterial suspensions were transferred to respective wells of a 96 well plate. A. baumannii, E. coli, and P. aeruginosa were placed in one row, the Staphylococci spp. were placed in a second row, and the fastidious aerobes were placed in a third row of the plate. The anaerobe was transferred from a 25 ml multichannel pipette reservoir. The Microdilution Preparations and the MIC tests were performed as in example 13.

[7] = tested on: Beta-Hemolytic Streptococci Groups C Streptococcus dysgalactiae ss equisimilis CCUG 4211; experiment: MIC microdilution test; assay type: cell-based; settings: CCUG 4211, 5% CO2
Experimental: as §5

[8] = tested on: Beta-Hemolytic Streptococci Groups G Streptococcus dysgalactiae ss equisimilis CCUG 7975; experiment: MIC microdilution test; assay type: cell-based; settings: CCUG7975, 5% CO2
Experimental: as §5

[9] = tested on: Escherichia coli CCUG 3274/ATCC 10536; experiment: MIC microdilution test; assay type: cell-based; settings: CCUG 3274, aerobic
Experimental: as §5

[10] = tested on: Staphylococcus aureus CCUG 15915/ATCC 29213; experiment: MIC microdilution test; assay type: cell-based; settings: CCUG 15915, aerobic
Experimental: as §5

[11] = tested on: Staphylococcus epidermidis CCUG 23118; experiment: MIC microdilution test; assay type: cell-based; settings: CCUG 23118, aerobic
Experimental: as §5

[12] = tested on: Streptococcus agalactiae CCUG 29376; experiment: MIC microdilution test; assay type: cell-based; settings: CCUG 29376, 5% CO2
Experimental: as §5

[13] = tested on: Streptococcus pyogenes CCUG 47803/ATCC 700294; experiment: MIC microdilution test; assay type: cell-based; settings: CCUG 47803, 5% CO2
Experimental: as §5

## O=C1O[C@H](CO)[C@@H](O)[C@H](O)[C@H]1O [GDA, glucono-δ-lactone]
C. albicans [1]
  decrease in viability of mature biofilm (XTT): clearly seen
C. glabrata
  decrease in viability of mature biofilm (XTT): strong decrease in viability
C. albicans [2]
  cell morphology: most treated cells were planctonic
Escherichia coli K12; M9 medium, 24-48 hours
  effect on growth (biomass): inhibiting effect on the growth
Escherichia coli K12; pH 2.6, 24 h
  decrease of biofilm formation: 14.2 times
Escherichia coli K12; pH 2.6, 48 h
  decrease of biofilm formation: 30 times
[3]
  MIC (g/ml): 0.001 g/ml
[4]
  MIC (g/ml): 0.0078 g/ml
[5]
  MIC (g/ml): 0.0078 g/ml
[6]
  MIC (g/ml): 0.0031 g/ml
[7]
  MIC (g/ml): 0.0016 g/ml
[8]
  MIC (g/ml): 0.0031 g/ml
[9]
  MIC (g/ml): 0.0063 g/ml
[10]
  MIC (g/ml): 0.0063 g/ml
[11]
  MIC (g/ml): 0.0031 g/ml
[12]
  MIC (g/ml): 0.0031 g/ml
[13]
  MIC (g/ml): 0.0031 g/ml
